How the values were obtained:
[1] = system: normal endometrial stromal cell line T-HESC; assay: BrdU cell proliferation assay, normal cells; assay type: cell-based, human; settings: 48 hours
Method: To examine the effects of fraxetin on cell proliferation, the inventors performed a BrdU cell proliferation assay.
First, 5×10^3 cells of VK2/E6E7, End1/E6E7, and T-HESC were each distributed in 100 μL of medium in 96-well plates.
Fraxetin was then administered in a dose-dependent manner (0μM, 5 μM, 10 μM, 20 uM, 50 μM, 100 uM) and cultured for 48 hours, followed by the BrdU assay using a BrdU kit (Cat No: 1167229001, Roche) according to the manufacturer's instructions.
After 48 hours of incubation, 10 μM BrdU (Bromodeoxyuridine) was added to each well and incubated at 37° C. in a 5% CO2 incubator for 2 hours. The cells were then fixed, reacted with anti-BrdU-POD solution at room temperature for 90 minutes, and washed three times. Finally, 100 μL of 3, 3′, 5, 5′-tetramethylbenzidine substrate was added, and absorbance was measured at wavelengths of 370 nm and 492 nm to analyze cell proliferation.

endometriotic lesions = assay: Gene expression in endometriotic lesion tissue of the animal model; assay type: in vivo, C57/BL6 mice
Method: Seven-week-old female C57/BL6 mice were purchased from DBL (Eumseong, South Korea). After a 7-day acclimation period, they were subcutaneously injected with 2 mg/50 μL of progesterone two days before surgery. After anesthetizing the mice, the […] was excised and autografted onto the peritoneum to induce endometriosis. After culturing for two weeks, the mice were randomly assigned to groups and administered either a vehicle as the control, fraxetin at 30mg/kg, or dienogest at 1 mg/kg orally for four weeks.

## COc1cc2ccc(=O)oc2c(O)c1O [fraxetin]
[1]
  cell proliferation in normal endometrial cells: no changes
Endometriotic lesions; endometriotic lesions
  expression of adhesion-related genes (Icam1, Vcam1, Itga1, Itga5): inhibited
  expression of apoptosis-related genes (Bak1, Bax, Bad, Casp1): increased
  expression of endoplasmic reticulum stress-related genes (Hspa5, Elf2s1, Ern1): increased
  expression of mitochondrial function-related genes (Atp5me, Atp5pb, Atp5po): decreased
Endometriotic lesions; endometriotic lesions, compared to control group
  mRNA expression of inflammation-related genes (Il4, Cxcl15, Il8, Il21, Tnf, Il4ra, Cxcr1, Cxcr2, Il18r, Il21r, Tnfrsfa): significantly reduced
Endometriotic lesions; fraxetin-treated group compared to control group
  expression of Icam1 and Vcam1 within the lesion tissue: reduced

— patent US20250302799A1, “PHARMACEUTICAL COMPOSITION CONTAINING FRAXETIN FOR PREVENTION OR TREATMENT OF ENDOMETRIOSIS” (Research & Business Foundation Sungkyunkwan University, priority 2024, published 2025)
